Several values for one entry are separate records, joined by “and”; a condition that tells them apart may be missing. Equal values may be shown once.
Assays:
[1] = system: sea lice, Lepeophtheirus salmonis; test: Dose titration study: efficacy of emamectin benzoate in feed against induced sea lice infestations on Atlantic salmon; type: in vivo; settings: for Percentage fish mortality: mortality attributed to sea lice damage, includes culled fish
Experimental: (§1) Three studies were carried out at the Institute of Aquaculture Marine Environmental Research Laboratory in Machrihanish, Scotland. Atlantic salmon, Salmo salar L., post-smolts were obtained from a disease free stock and acclimatised at the test facility.
(§2) Fish were held in replicate groups in plastic fiber tanks, each with a volume of 0.54 m^3. Each tank was supplied with natural sea water at ambient temperature (7-14° C.) and salinity (30-35 ppt), at flow rates of approximately 18 l. min^−1. The tanks were fitted with mesh screens over the water outlet to retain uneaten fish pellets. Fish were observed daily for behavior and adverse drug reactions. Fish mortalities and the occurrence of gross sea lice damage were also recorded.
(§3) Sea lice were collected during harvesting on commercial salmon farms on the west coast of Scotland. Egg strings collected from gravid female lice were incubated in sea water at ambient temperature and within a salinity range of 32-35 ppt. Once the hatched larvae reached the copepodite stage, 38-170 copepodites per fish were introduced into each of four replicate tanks of fish and the water supply to each tank was turned off for approximately three hours to allow attachment of copepodites to the fish. This was repeated 4-5 times at intervals of 3-5 days until chalimus stages I, II, III and IV were present. Chalimus numbers were evaluated at day −1 or day −2 pre-treatment, on sub-samples of fish (N=6-9 fish per tank). At this point, fish were infested with pre-adult and adult lice, by adding 5-10 lice per fish to each tank. Water supplies to each tank were turned off for around one hour until all the lice had attached to the fish. Pre-treatment lice numbers were based on a sub-sample of the total population and presented as the mean number of chalimus per fish. Fish were then randomly re-distributed from the four original tanks to each control or treatment tank, as described in the experimental design for each study, and no further infestations were carried out during or after treatment.
(§4) The basal ration was Fulmar™ (BOCM Pauls Ltd.) 3.5 or 5 mm salmon feed pellets. Emamectin benzoate was dissolved in propylene glycol and mixed with fish oil prior to top coating the feed pellets. Control feeds were prepared in the same way with propylene glycol and fish oil. Treatment was administered at nominal dose rates of 0, 25, 50 and 100 μg kg^−1 fish biomass per day, at a feed rate of 0.5% biomass, for a period of seven consecutive days (days 0-6). Actual daily feed consumption was measured in each tank by collecting the uneaten feed pellets approximately thirty minutes after administration and subtracting the number of pellets from the daily ration fed. The mean dose consumed was calculated for each group as follows: [formula] Mean feed consumption (%)×nominal dose rate (μg·kg^−1)=Mean dose consumed (μg·kg^−1)
(§5) Evaluation of sea lice numbers was carried out at 7, 14 and 21 days from the start of treatment. Fish were anaesthetised in 40 mg·l^−1 ethyl-P-aminobenzoate (benzocaine) and each fish examined under a low power microscope. Lice were identified as chalimus I-IV, pre-adult I or II and adult stages. Pre-adults and adult lice were additionally identified as males or females. The numbers of each developmental stage were recorded. Any lice which detached in the anaesthetic solution were included in the counts and reattached to the fish after transferring them to fresh seawater. The fish were returned to the holding tanks after sampling and the same fish were evaluated at days 7, 14 and 21.
The water temperature was 7-10° C. and salinity was 33-34 ppt. Pre-treatment, mean fish weights were 192 g (±30 g S.D). Emamectin benzoate was administered at nominal daily dose rates of 0, 25, 50 and 100 μg kg^−1 fish biomass. There were two replicate tanks per treatment with a sample size of 19 or 20 fish per tank. […]

[2] = system: sea lice, Lepeophtheirus salmonis; test: Dose confirmation study I: efficacy of emamectin benzoate in feed against induced sea lice infestations on Atlantic salmon; type: in vivo; settings: nominal dose 25 μg·kg^−1/day (consumed 20.2) in feed Day 0-6; Day 7
Experimental: as §1, §2, §3, §4, §5
The water temperature was 12-14° C. and salinity was 33-35 ppt. Pre-treatment, mean fish weights were 224 g (±43 g S.D). Emamectin benzoate was administered at nominal daily dose rates of 0, 25, and 50 μg kg^−1 biomass. There were three replicate tanks per treatment with 15 fish per tank. […]

[3] = nominal dose 25 μg·kg^−1/day (consumed 21.5) in feed Day 0-6, Day 7
[4] = nominal dose 25 μg·kg^−1/day (consumed 21.5) in feed Day 0-6, day 21
[5] = nominal dose 25 μg·kg^−1/day in feed Day 0-6, Day 14
[6] = nominal dose 25 μg·kg^−1/day in feed Day 0-6, Day 21
[7] = nominal dose 50 μg·kg^−1/day (consumed 45.0) in feed Day 0-6, Day 7
[8] = nominal dose 50 μg·kg^−1/day (consumed 45.0) in feed Day 0-6, day 21
[9] = nominal dose 50 μg·kg^−1/day in feed Day 0-6, Day 14
[10] = nominal dose 50 μg·kg^−1/day in feed Day 0-6, Day 21
[11] = nominal dose 100 μg·kg^−1/day (consumed 91.0) in feed Day 0-6, Day 7
[12] = nominal dose 100 μg·kg^−1/day (consumed 91.0) in feed Day 0-6, day 21
[13] = nominal dose 100 μg·kg^−1/day in feed Day 0-6, Day 14
[14] = nominal dose 100 μg·kg^−1/day in feed Day 0-6, Day 21

Substance: emamectin benzoate
- reduction of total numbers of lice per fish compared to the control groups ([1]; all treatment groups (25, 50, 100 μg kg^−1), day 7): 35.4-37.5%
- % Reduction relative to controls (Total lice) [1, 3]: 36.2%
- Mean Total lice (± S.D) [1, 3]: 32.6 ± 10.7
- Mean chalimus (± S.D) [1, 3]: 20.9 ± 8.6
- Mean motiles (± S.D) [1, 3]: 11.7 ± 6.0
- % Reduction relative to controls (Total lice) ([1]; nominal dose 25 μg·kg^−1/day (consumed 21.5) in feed Day 0-6, Day 21): 89.8%
- Percentage of fish with no lice present (chalimus or motiles) [1, 4]: 13.8%
- Percentage of fish with no motile lice present [1, 4]: 55.0%
- % Reduction relative to controls (Total lice) [1, 5]: 70.8%
- Mean Total lice (± S.D) [1, 5]: 13.1 ± 6.9
- Mean chalimus (± S.D) [1, 5]: 9.7 ± 3.9
- Mean motiles (± S.D) [1, 5]: 3.4 ± 6.4
- Mean Total lice (± S.D) [1, 6]: 3.5 ± 2.7
- Mean chalimus (± S.D) [1, 6]: 2.4 ± 1.9
- Mean motiles (± S.D) [1, 6]: 1.1 ± 2.2
- Percentage fish mortality ([1]; nominal dose 25 μg·kg^−1/day): 0%
- % Reduction relative to controls (Total lice) [1, 7]: 37.5%
- Mean Total lice (± S.D) [1, 7]: 31.9 ± 11.4
- Mean chalimus (± S.D) [1, 7]: 24.8 ± 10.3
- Mean motiles (± S.D) [1, 7]: 7.1 ± 4.1
- % Reduction relative to controls (Total lice) ([1]; nominal dose 50 μg·kg^−1/day (consumed 45.0) in feed Day 0-6, Day 21): 95.2%
- Percentage of fish with no lice present (chalimus or motiles) [1, 8]: 22.5%
- Percentage of fish with no motile lice present [1, 8]: 87.5%
- % Reduction relative to controls (Total lice) [1, 9]: 70.3%
- Mean Total lice (± S.D) [1, 9]: 13.4 ± 5.9
- Mean chalimus (± S.D) [1, 9]: 12.4 ± 3.5
- Mean motiles (± S.D) [1, 9]: 1.0 ± 1.2
- Mean Total lice (± S.D) [1, 10]: 1.7 and 1.7 ± 1.3
- Mean chalimus (± S.D) [1, 10]: 1.6 ± 1.5
- Mean motiles (± S.D) [1, 10]: 0.1 ± 0.3
- Percentage fish mortality ([1]; nominal dose 50 μg·kg^−1/day): 0%
- % Reduction relative to controls (Total lice) [1, 11]: 35.4%
- Mean Total lice (± S.D) [1, 11]: 33.0 ± 10.7
- Mean chalimus (± S.D) [1, 11]: 29.0 ± 9.8
- Mean motiles (± S.D) [1, 11]: 4.0 ± 3.6
- % Reduction relative to controls (Total lice) ([1]; nominal dose 100 μg·kg^−1/day (consumed 91.0) in feed Day 0-6, Day 21): 95.8%
- Percentage of fish with no lice present (chalimus or motiles) [1, 12]: 28.2%
- Percentage of fish with no motile lice present [1, 12]: 87.0%
- % Reduction relative to controls (Total lice) [1, 13]: 66.4%
- Mean Total lice (± S.D) [1, 13]: 15.1 ± 5.8
- Mean chalimus (± S.D) [1, 13]: 14.1 ± 5.5
- Mean motiles (± S.D) [1, 13]: 1.0 ± 3.2
- Mean Total lice (± S.D) [1, 14]: 1.5 ± 1.6
- Mean chalimus (± S.D) [1, 14]: 1.2 ± 1.2
- Mean motiles (± S.D) [1, 14]: 0.3 ± 1.0
- Percentage fish mortality ([1]; nominal dose 100 μg·kg^−1/day): 2.5%
- mean numbers of motile lice in the treated groups ([1]; treated groups (25, 50, 100 μg kg^−1), day 21): 0.1-1.1 per fish
- % Reduction relative to controls (Total lice) [2]: 43.8%
- Mean Total lice (± S.D) [2]: 34.2 ± 15.8
- Mean chalimus (± S.D) [2]: 1.8 ± 1.7
- Mean motiles (± S.D) [2]: 32.4 ± 15.4

Reference: patent US6486128B1, “Method of using emamectin to treat fish parasites” (Schering-Plough Veterinary Corporation, priority 1999, dated 2002)
